Experimental data: PubChem BioAssay (NCI)
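Where inhibition never reached the appropriate level, the endpoint shown equals the highest concentration tested. Otherwise, values were interpolated linearly from a five-concentration, 48-hour dose response in 96-well plates. At the TGI there is no net growth.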 Where a SMILES comes first, the peptide text is derived from it. [ ]: non-standard residue; d: D form. The star is where a group is joined. ξ: configuration not given here. ξW = NC(Cc1c[nH]c2ccccc12)C(=O)O; X30 = O=C(O)[C@H]1CCC[C@H]1N*; ξF = NC(Cc1ccccc1)C(=O)O; Boc = CC(C)(C)OC(=O)*; ξK = NCCCCC(N)C(=O)O; ξT = CC(O)C(N)C(=O)O; tBu = CC(C)(C)*

How the values were obtained:
Test in all cases: DTP human tumour cell line panel, 48 h
786-0 renal = system: 786-0 renal
OVCAR-4 ovarian = system: OVCAR-4 ovarian
HOP-92 NSCLC = system: HOP-92 NSCLC
U251 CNS = system: U251 CNS
SK-MEL-5 melanoma = system: SK-MEL-5 melanoma
SF-268 CNS = system: SF-268 CNS
A549 NSCLC = system: A549 NSCLC
SR leukemia = system: SR leukemia
DU-145 prostate = system: DU-145 prostate
UACC-257 melanoma = system: UACC-257 melanoma
OVCAR-8 ovarian = system: OVCAR-8 ovarian
HT29 colon = system: HT29 colon
RXF 393 renal = system: RXF 393 renal
RPMI-8226 leukemia = system: RPMI-8226 leukemia
BT-549 breast = system: BT-549 breast
SNB-75 CNS = system: SNB-75 CNS

Row | SMILES | TGI (786-0 renal) | TGI (OVCAR-4 ovarian) | TGI (HOP-92 NSCLC) | TGI (U251 CNS) | TGI (SK-MEL-5 melanoma) | TGI (SF-268 CNS) | TGI (A549 NSCLC) | TGI (SR leukemia) | TGI (DU-145 prostate) | TGI (UACC-257 melanoma) | TGI (OVCAR-8 ovarian) | TGI (HT29 colon) | TGI (RXF 393 renal) | TGI (RPMI-8226 leukemia) | TGI (BT-549 breast) | TGI (SNB-75 CNS)
1 | COC1CC(n2ccc(=O)[nH]c2=O)OC1CO (stereo unspecified) | > 100 µM | > 100 µM | > 100 µM | > 100 µM | > 100 µM | > 100 µM | > 100 µM | > 100 µM | > 100 µM | > 100 µM | > 100 µM | > 100 µM | > 100 µM | – | – | –
2 | O=C1C=C(NCCc2cc(Cl)c(O)c(Cl)c2)C(=O)c2[nH]cnc21 | > 100 µM | – | – | > 100 µM | 31.5 µM | – | > 100 µM | > 100 µM | – | 60 µM | > 100 µM | > 100 µM | – | > 100 µM | > 100 µM | –
3 | NC(N)=NCCCC(NCc1c2ccccc2[n+]([O-])c2ccccc12)C(=O)O (stereo unspecified) | > 100 µM | > 100 µM | – | > 100 µM | > 100 µM | > 100 µM | > 100 µM | – | – | > 100 µM | > 100 µM | > 100 µM | – | 96.2 µM | – | 88.7 µM
4 | COc1cc(O)c2c(c1O)C(=O)c1cc(C)ncc1C2=O | > 50 µM | > 50 µM | – | 30.7 µM | 30 µM | > 50 µM | > 50 µM | – | – | 36.6 µM | > 50 µM | > 50 µM | > 50 µM | > 50 µM | – | > 50 µM
5 | COc1cc(/C=C2/C(=O)N=C(NC(C)=O)N2C)ccc1OC(C)=O | > 100 µM | > 100 µM | > 100 µM | > 100 µM | > 100 µM | – | > 100 µM | – | > 100 µM | > 100 µM | > 100 µM | > 100 µM | – | – | > 100 µM | > 100 µM
6 | N#Cc1nc(NC(=O)c2ccccc2)sc1N | > 10 µM | > 10 µM | > 10 µM | > 10 µM | > 10 µM | > 10 µM | > 10 µM | > 10 µM | > 10 µM | > 10 µM | > 10 µM | > 10 µM | > 10 µM | > 10 µM | – | > 10 µM
7 | Nc1ccc(-c2nc3ccc(Cc4ccc5nc(-c6ccc(N)cc6)oc5c4)cc3o2)cc1 | > 100 µM | > 100 µM | > 100 µM | > 100 µM | – | > 100 µM | > 100 µM | 41.2 µM | > 100 µM | > 100 µM | > 100 µM | > 100 µM | > 100 µM | > 100 µM | – | –
8 | O=C(/C=C/c1cccs1)c1ccc(Cl)s1 | > 10 µM | > 100 µM | – | > 100 µM | > 100 µM | > 100 µM | > 100 µM | 63.2 µM | > 100 µM | > 100 µM | > 100 µM | > 10 µM | – | 44 µM | – | > 100 µM
9 | Cc1ccc(Nc2cc(=O)[nH]c(=O)[nH]2)cc1CS | > 100 µM | > 100 µM | > 100 µM | > 100 µM | > 100 µM | > 100 µM | > 100 µM | > 100 µM | – | > 100 µM | > 100 µM | > 100 µM | > 100 µM | > 100 µM | > 100 µM | > 100 µM
10 | Clc1ccc2c(Cl)nc(-c3ccccc3)nc2c1 | – | – | – | 35.1 µM | 82.4 µM | > 100 µM | – | > 100 µM | – | > 100 µM | > 100 µM | > 100 µM | 71.2 µM | 55.3 µM | – | > 100 µM
11 | Cc1cccc2c(N)c3cccc(C(=O)NCCN4CCOCC4)c3nc12 | 20.5 µM | 6.69 µM | 23.2 µM | 20.5 µM | 2.46 µM | 1.19 µM | 7.92 µM | – | 11.6 µM | 7.81 µM | – | 3.99 µM | 2.62 µM | > 60.4 µM | 8.54 µM | 1.32 µM
12 | O=C1c2cscc2C(=O)c2c(OCc3ccccc3)ccc(OCc3ccccc3)c21 | > 100 µM | > 100 µM | > 100 µM | – | > 100 µM | > 100 µM | > 100 µM | > 100 µM | > 100 µM | > 100 µM | > 100 µM | > 100 µM | > 100 µM | > 100 µM | – | > 100 µM
13 | O=C(Nc1ccc(N2C(=O)CSC2c2cccs2)cc1)c1ccc(N2C(=O)CSC2c2cccs2)cc1 (stereo unspecified) | > 100 µM | > 100 µM | > 100 µM | > 100 µM | > 100 µM | > 100 µM | > 100 µM | – | > 100 µM | > 100 µM | > 100 µM | > 100 µM | > 100 µM | – | > 100 µM | > 100 µM
14 | CC(OC(C)(C)C)C(NC(=O)C(CCCCNC(=O)OC(C)(C)C)NC(=O)C(Cc1c[nH]c2ccccc12)NC(=O)C(N)Cc1ccccc1)C(=O)NC(Cc1ccccc1)C(=O)N[C@@H]1CCC[C@@H]1C(=O)O (stereo partly specified) (H-[ξF][ξW][ξK](Boc)[ξT](tBu)[ξF]-X30) | > 100 µM | > 100 µM | 88.3 µM | 68.3 µM | > 100 µM | > 100 µM | > 100 µM | > 100 µM | > 100 µM | > 100 µM | > 100 µM | 80.3 µM | > 100 µM | > 100 µM | – | > 100 µM
15 | Oc1c2c(c3c4c1N=CC=4CCN=3)C1(C=C(Br)C(O)C(Br)=C1)CCN2 (stereo unspecified) | – | 2.86 µM | 8.08 µM | 5.44 µM | 2.67 µM | 5.75 µM | 12.5 µM | – | – | 1.27 µM | 2.91 µM | 2.15 µM | 7.57 µM | 7.41 µM | – | 24.5 µM
16 | N#Cc1nc(C2SCCCS2)oc1N | > 100 µM | > 100 µM | > 100 µM | > 100 µM | > 100 µM | > 100 µM | > 100 µM | > 100 µM | > 100 µM | > 100 µM | > 100 µM | > 100 µM | – | > 100 µM | – | 0.843 µM
17 | COC(=O)C(CCSc1ccccc1)C(=O)OC | > 100 µM | > 100 µM | > 100 µM | > 100 µM | > 100 µM | – | > 100 µM | > 100 µM | – | > 100 µM | > 100 µM | > 100 µM | > 100 µM | > 100 µM | > 100 µM | > 100 µM
